Reference: article PMC7047876, “Potent Chimeric Antimicrobial Derivatives of the Medicago truncatula NCR247 Symbiotic Peptide” (Frontiers in Microbiology, 2020)
Read-outs that look alike come from different tables or passages of the source. Peptide text beside a SMILES is read from it.

What was measured:
Format in all cases: cell-based
[1] = tested on: ESKAPE bacteria, L. monocytogenes and S. enterica; experiment: Antimicrobial activity in PPB, summarised over the tested bacteria; conditions: PPB, peptides tested up to 25 μM
From the text: (§1) The pathogenic bacterial strains obtained from the ATCC (United States) and NCTC (National Collection of Type Cultures – England) were the Gram-positive: Enterococcus faecalis (ATCC 29212), Staphylococcus aureus (HNCMO112011), Listeria monocytogenes (ATCC 19111) and the Gram-negative: Pseudomonas aeruginosa (ATCC 27853), Escherichia coli (ATCC 8739), Salmonella enterica (ATCC 13076), Klebsiella pneumoniae (NCTC 13440), Acinetobacter baumannii (ATCC 17978).
(§2) Overnight bacterial cultures grown in LB were diluted and grown to OD600 = 0.2–0.6 at 37°C with shaking. After harvesting and washing bacteria in PPB, the suspensions were adjusted to OD600 = 0.1 corresponding to ∼10^7 bacteria/mL. Antimicrobial activity of the peptides and the antibiotics was determined in PPB in 96 well microplates using 10 μL bacterial suspension and 90 μL of the 2-fold serial dilutions of peptides or antibiotics. Peptides were tested from 25 μM to 0.125 μM whereas the antibiotics; carbenicillin (Cb) from Duchefa Biochemie (Prod.No. C0109.0025) and levofloxacin (Lvx) from Sigma-Aldrich (Prod.No. 28266-10MG-F) from […] to 0.1 μM. The microplates were incubated for 3 h at 37°C with 250 rpm shaking and then 5 μl from each sample was placed on LB agar and the growth of bacteria was monitored after overnight incubation at 37°C. The lowest concentration of the antimicrobial agents, which completely eliminated viable bacteria was the minimal bactericidal concentration (MBC).

[2] = tested on: Acinetobacter baumannii (ATCC 17978); experiment: microbe, parasite or virus in culture; conditions: read-out: Minimal bactericidal concentration (MBC) A. b.
From the text: as §1, §2

[3] = tested on: Enterococcus faecalis (ATCC 29212); experiment: microbe, parasite or virus in culture; conditions: read-out: Minimal bactericidal concentration (MBC) E. f.
From the text: as §1, §2

[4] = tested on: Escherichia coli (ATCC 8739); experiment: microbe, parasite or virus in culture; conditions: read-out: Minimal bactericidal concentration (MBC) E. c.
From the text: as §1, §2

[5] = tested on: Klebsiella pneumoniae (NCTC 13440); experiment: microbe, parasite or virus in culture; conditions: for MBC: read-out: Minimal bactericidal concentration (MBC) K. p.
From the text: as §1, §2

[6] = tested on: Listeria monocytogenes (ATCC 19111); experiment: microbe, parasite or virus in culture; conditions: for MBC: read-out: Minimal bactericidal concentration (MBC) L. m.
From the text: as §1, §2

[7] = tested on: Pseudomonas aeruginosa (ATCC 27853); experiment: microbe, parasite or virus in culture; conditions: read-out: Minimal bactericidal concentration (MBC) P. a.
From the text: as §1, §2

[8] = tested on: Salmonella enterica (ATCC 13076); experiment: microbe, parasite or virus in culture; conditions: read-out: Minimal bactericidal concentration (MBC) S. e.
From the text: as §1, §2

[9] = tested on: Staphylococcus aureus (HNCMO112011); experiment: microbe, parasite or virus in culture; conditions: read-out: Minimal bactericidal concentration (MBC) S. a.
From the text: as §1, §2

[10] = tested on: Acinetobacter baumannii
From the text: as §1
(§3) Ca^2+ and Mg^2+ can inhibit the antimicrobial activity of cationic peptides, therefore the MBC and MIC values were also determined in MHB, which unlike PPB contains divalent cations and allows growth of bacteria. Bacteria were grown and prepared similarly except that bacteria were resuspended in MHB. 10 μl of bacteria OD600 = 0.1, supplemented with 45 μl MHB and 45 μl of 2-fold dilution series of peptides, were cultivated for 3 and 20 h at 37°C with shaking. Optical density of each sample was measured (Hidex Sense Microplate Reader with Plate Reader Software version 5064) and 5 μl was placed on LB agar plates after 3 and 20 h treatment. The minimal inhibitory concentration (MIC) corresponded to the lowest concentration, which inhibited growth.

[11] = tested on: Escherichia coli
From the text: as §1, §3

[12] = tested on: Staphylococcus aureus
From the text: as §1, §3

[13] = 3 h treatment in PPB (20 mM potassium-phosphate buffer, pH 7.4), 37°C, then plating on LB agar
[14] = MHB, 3 h treatment, 37°C (panel assigned)
[15] = MHB, 20 h cultivation, 37°C, optical density (panel assigned)
[16] = MHB, 20 h treatment, 37°C (panel assigned)

RNGCIVDPRCPY [N-terminal part, 12 amino acid long N-terminal half of NCR247]
inactive: Antimicrobial activity on the tested bacteria [1]

CC[C@H](C)[C@H](NC(=O)[C@H](CCCCN)NC(=O)[C@H](CCCCN)NC(=O)[C@H](C)NC(=O)[C@H](CC(C)C)NC(=O)[C@H](C)NC(=O)[C@H](C)NC(=O)[C@H](CC(C)C)NC(=O)[C@H](C)NC(=O)[C@H](CCCCN)NC(=O)[C@H](CC(C)C)NC(=O)[C@H](CC(N)=O)NC(=O)[C@@H](NC(=O)[C@H](CCCCN)NC(=O)CNC(=O)[C@H](CC(C)C)NC(=O)[C@H](CC(C)C)NC(=O)[C@H](Cc1ccc(O)cc1)NC(=O)CNC(=O)[C@H](C)NC(=O)[C@H](CO)NC(=O)[C@H](CC(N)=O)NC(=O)[C@H](CC(C)C)NC(=O)[C@@H](NC(=O)[C@H](Cc1c[nH]c2ccccc12)NC(=O)CN)[C@@H](C)O)[C@@H](C)CC)C(=O)N[C@@H](CC(C)C)C(N)=O [J, Transportan, reference compound]
6.3 µM: MBC in Mueller Hinton Broth, panel (A), E. c. [11, 14] | MBC in Mueller Hinton Broth, panel (B), E. c. [11, 16] | MBC in Mueller Hinton Broth, panel (A), S. a. [12, 14]
1.6 µM: MBC [2, 13] | MBC [8, 13]
3.1 µM: MBC [3, 13] | MBC [4, 13] | MBC [5, 13] | MBC [6, 13] | MBC [7, 13] | MBC [9, 13] | MBC in Mueller Hinton Broth, panel (A), A. b. [10, 14] | MIC in Mueller Hinton Broth, panel (C), A. b. [10, 15] | MBC in Mueller Hinton Broth, panel (B), A. b. [10, 16] | MIC in Mueller Hinton Broth, panel (C), E. c. [11, 15] | MIC in Mueller Hinton Broth, panel (C), S. a. [12, 15] | MBC in Mueller Hinton Broth, panel (B), S. a. [12, 16]

CC[C@H](C)[C@H](NC(=O)[C@H](CS)NC(=O)CNC(=O)[C@H](CC(N)=O)NC(=O)[C@@H](N)CCCNC(=N)N)C(=O)N[C@H](C(=O)N[C@@H](CC(=O)O)C(=O)N1CCC[C@H]1C(=O)N[C@@H](CCCNC(=N)N)C(=O)N[C@@H](CS)C(=O)N1CCC[C@H]1C(=O)N[C@@H](Cc1ccc(O)cc1)C(=O)N[C@@H](CCC(N)=O)C(=O)N[C@@H](CCC(N)=O)C(=O)N[C@@H](CS)C(=O)N[C@@H](CCCNC(=N)N)C(=O)N[C@@H](CCCNC(=N)N)C(=O)N1CCC[C@H]1C(=O)N[C@@H](CC(C)C)C(=O)N[C@@H](Cc1ccc(O)cc1)C(=O)N[C@@H](CS)C(=O)N[C@@H](CCCNC(=N)N)C(=O)N[C@@H](CCCNC(=N)N)C(=O)N[C@@H](CCCNC(=N)N)C(N)=O)C(C)C [A, NCR247] (H-RNGCIVDPRCPYQQCRRPLYCRRR-NH2; N-terminus assumed)
6.3 µM: MBC ([4]; ATCC 8739, 3 h, pH 7.4) | MBC ([9]; HNCMO112011, 3 h, pH 7.4)
resistant at 25 μM: Minimal bactericidal concentration (MBC) K. p. [5, 13] | Minimal bactericidal concentration (MBC) L. m. [6, 13]
25 µM: MBC ([8]; ATCC 13076, 3 h, pH 7.4) | MIC in Mueller Hinton Broth, panel (C), E. c. ([11]; 20 h)
3.1 µM: MBC ([7]; ATCC 27853, 3 h, pH 7.4)
12.5 µM: MBC ([2]; ATCC 17978, 3 h, pH 7.4)
> 25 µM: MBC in Mueller Hinton Broth, panel (A), A. b. ([10]; 3 h) | MBC in Mueller Hinton Broth, panel (A), E. c. ([11]; 3 h) | MBC in Mueller Hinton Broth, panel (A), S. a. ([12]; 3 h)
>25 µM: MBC ([3]; ATCC 29212, 3 h, pH 7.4) | MBC ([6]; ATCC 19111, 3 h, pH 7.4) | MBC in Mueller Hinton Broth, panel (B), A. b. ([10]; 20 h) | MIC in Mueller Hinton Broth, panel (C), A. b. ([10]; 20 h) | MBC in Mueller Hinton Broth, panel (B), E. c. ([11]; 20 h) | MBC in Mueller Hinton Broth, panel (B), S. a. ([12]; 20 h) | MIC in Mueller Hinton Broth, panel (C), S. a. ([12]; 20 h)

CC(C)C[C@H](NC(=O)[C@@H]1CCCN1C(=O)[C@H](CCCNC(=N)N)NC(=O)[C@H](CCCNC(=N)N)NC(=O)[C@H](CS)NC(=O)[C@H](CCC(N)=O)NC(=O)[C@@H](N)CCC(N)=O)C(=O)N[C@@H](Cc1ccc(O)cc1)C(=O)N[C@@H](CS)C(=O)N[C@@H](CCCNC(=N)N)C(=O)N[C@@H](CCCNC(=N)N)C(=O)N[C@@H](CCCNC(=N)N)C(N)=O [B, NCR247C] (H-QQCRRPLYCRRR-NH2; N-terminus assumed)
6.3 µM: MBC ([4]; ATCC 8739, 3 h, pH 7.4)
25 µM: MBC ([2]; ATCC 17978, 3 h, pH 7.4) | MBC ([7]; ATCC 27853, 3 h, pH 7.4)
> 25 µM: MBC in Mueller Hinton Broth, panel (A), A. b. ([10]; 3 h) | MBC in Mueller Hinton Broth, panel (A), E. c. ([11]; 3 h) | MBC in Mueller Hinton Broth, panel (A), S. a. ([12]; 3 h)
>25 µM: MBC ([3]; ATCC 29212, 3 h, pH 7.4) | MBC ([5]; NCTC 13440, 3 h, pH 7.4) | MBC ([6]; ATCC 19111, 3 h, pH 7.4) | MBC ([8]; ATCC 13076, 3 h, pH 7.4) | MBC ([9]; HNCMO112011, 3 h, pH 7.4) | MBC in Mueller Hinton Broth, panel (B), A. b. ([10]; 20 h) | MIC in Mueller Hinton Broth, panel (C), A. b. ([10]; 20 h) | MBC in Mueller Hinton Broth, panel (B), E. c. ([11]; 20 h) | MIC in Mueller Hinton Broth, panel (C), E. c. ([11]; 20 h) | MBC in Mueller Hinton Broth, panel (B), S. a. ([12]; 20 h) | MIC in Mueller Hinton Broth, panel (C), S. a. ([12]; 20 h)

CC[C@H](C)[C@H](NC(=O)[C@H](CCCCN)NC(=O)[C@H](CCCCN)NC(=O)[C@H](C)NC(=O)[C@H](CC(C)C)NC(=O)[C@H](C)NC(=O)[C@H](C)NC(=O)[C@H](CC(C)C)NC(=O)[C@H](C)NC(=O)[C@@H](N)CCCCN)C(=O)N[C@@H](CC(C)C)C(N)=O [I, X2] (H-KALAALAKKIL-NH2)
6.3 µM: MBC [7, 13]
>25 µM: MBC [3, 13] | MBC [4, 13] | MBC [5, 13] | MBC [8, 13] | MBC in Mueller Hinton Broth, panel (B), A. b. [10, 16] | MIC in Mueller Hinton Broth, panel (C), E. c. [11, 15] | MBC in Mueller Hinton Broth, panel (B), E. c. [11, 16] | MIC in Mueller Hinton Broth, panel (C), S. a. [12, 15] | MBC in Mueller Hinton Broth, panel (B), S. a. [12, 16]
> 25 µM: MBC in Mueller Hinton Broth, panel (A), A. b. [10, 14] | MBC in Mueller Hinton Broth, panel (A), E. c. [11, 14] | MBC in Mueller Hinton Broth, panel (A), S. a. [12, 14]
25 µM: MBC [2, 13] | MBC [6, 13] | MBC [9, 13] | MIC in Mueller Hinton Broth, panel (C), A. b. [10, 15]
